Test results from patent publication US20240391912A1, “MORPHIC FORMS OF CFT7455 AND METHODS OF MANUFACTURE THEREOF” (C4 THERAPEUTICS, INC., priority 2022, published 2024).
≈ marks a conversion by molar mass, not a printed value.

Key:
Assay type in all cases: physicochemical
[1] = Scale-up experiment (200 mg) and characterization of new polymorphs of Compound 1; details: TGA, 10° C./min, at 225° C.
Protocol: Scale-up 1: About 200 mg of Compound 1 Form I was dissolved in 10 mL THF/Water (95:5, v:v) at 40° C. […] Compound 1 Form IV was obtained. It was subjected to characterization.
Scale-up 2: About 200 mg of Compound 1 Form I was dissolved in 10 mL THF/Water (95:5, v:v) at 40° C. […] It was subjected to characterization.

[2] = Approximate solubility of Compound 1 Form I at 25° C. and 50° C. (visual observation); details: thermodynamic from solid
Protocol: Max. volume of each solvent added was 1 mL. Approximate solubility was determined by visual observation.

[3] = Water activity study of Compound 1 Form I at 25° C. for 1 week; details: for change of morphic form in solvents with high water content (water activity study): acetone/water, DMSO/water, pure water, 25° C.
Protocol: Water activity experiments were conducted at 25° C. in 7 different water activities solvent mixtures to determine critical water activity of Compound 1 Form I. About 20 mg of Compound 1 Form I was added to 1.0 mL of acetone/water or DMSO/water mixtures and stirred at 400 rpm and 25° C. for 1 week.

[4] = Crystallization of Compound 1 at room temperature by slow evaporation (XRPD)
Protocol: About 20 mg of Compound 1 Form I (free form) was dissolved and filtered by 0.45 μm nylon filter. Obtained solutions were evaporated slowly at ambient condition. Solid residues were examined for their polymorphic form.

With `O=C1CC[C@H](N2C(=O)c3cccc4c(Cc5ccc(CN6CCOCC6)cc5)ccc2c34)C(=O)N1` [Compound 1 Form I, (S)-3-(6-(4-(morpholinomethyl)benzyl)-2-oxobenzo[cd]indol-1(2H)-yl)piperidine-2,6-dione] the Thermogravimetry weight loss [1] was “About 2.0%”, the solubility ([2]; DCM, 25 °C, organic solvent or mixture) was 8000 to 13000 µg/mL (≈ 17 to 27.7 mM) and the solubility ([2]; DCM, 50 °C, organic solvent or mixture) was 16000 to 25000 µg/mL (≈ 34.1 to 53.2 mM). It also gave a solubility ([2]; DCM:MeOH (v:v = 1:1), 25 °C, organic solvent or mixture, DCM:MeOH (v:v = 1:1), 25° C.) of 17000 to 20000 µg/mL (≈ 36.2 to 42.6 mM), a solubility ([2]; DCM:MeOH (v:v = 1:1), 50 °C, organic solvent or mixture, DCM:MeOH (v:v = 1:1), 50° C.) of 29000 to 33000 µg/mL (≈ 61.8 to 70.3 mM) and a solubility ([2]; DMSO, 25 °C, organic solvent or mixture) of 83000 to 125000 µg/mL (≈ 177 to 266 mM). The solubility ([2]; DMSO, 25 °C, organic solvent or mixture, in DMSO, solubilized at about 25° C.) was ≥ 50000 µg/mL, the solubility ([2]; DMSO, 50 °C, organic solvent or mixture) was 167000 to 250000 µg/mL (≈ 356 to 532 mM) and the solubility ([2]; Ethanol:Water (8:2, v:v), 25 °C, organic solvent or mixture, Ethanol:Water (8:2, v:v), 25° C.) was < 5000 µg/mL. The solubility ([2]; Ethanol:Water (8:2, v:v), 50 °C, organic solvent or mixture, Ethanol:Water (8:2, v:v), 50° C.) was < 10000 µg/mL, the solubility ([2]; MTBE, 25 °C, organic solvent or mixture) was < 5000 µg/mL and the solubility ([2]; MTBE, 50 °C, organic solvent or mixture) was < 10000 µg/mL. The solubility ([2]; THF, 25 °C, organic solvent or mixture) was 8000 to 13000 µg/mL (≈ 17 to 27.7 mM), the solubility ([2]; THF, 50 °C, organic solvent or mixture) was 16000 to 25000 µg/mL (≈ 34.1 to 53.2 mM) and the solubility ([2]; THF:Water (v:v = 95:5), 25 °C, organic solvent or mixture, THF:Water (v:v = 95:5), 25° C.) was 17000 to 20000 µg/mL (≈ 36.2 to 42.6 mM). For the same molecule, the solubility ([2]; THF:Water (v:v = 95:5), 50 °C, organic solvent or mixture, THF:Water (v:v = 95:5), 50° C.) was 40000 to 50000 µg/mL (≈ 85.2 to 106 mM), the solubility ([2]; acetone, 25 °C, organic solvent or mixture) was < 5000 µg/mL and the solubility ([2]; acetone, 50 °C, organic solvent or mixture) was < 10000 µg/mL. For the same molecule, the solubility ([2]; acetonitrile, 25 °C, organic solvent or mixture) was < 5000 µg/mL, the solubility ([2]; acetonitrile, 50 °C, organic solvent or mixture) was < 10000 µg/mL and the solubility ([2]; ethanol, 25 °C, organic solvent or mixture) was < 5000 µg/mL. For the same molecule, the solubility ([2]; ethanol, 50 °C, organic solvent or mixture) was < 10000 µg/mL, the solubility ([2]; ethyl acetate, 25 °C, organic solvent or mixture) was < 5000 µg/mL and the solubility ([2]; ethyl acetate, 50 °C, organic solvent or mixture) was < 10000 µg/mL. The solubility ([2]; heptane, 25 °C, organic solvent or mixture) was < 5000 µg/mL, the solubility ([2]; heptane, 50 °C, organic solvent or mixture) was < 10000 µg/mL and the solubility ([2]; methanol, 25 °C, organic solvent or mixture, approximate, visual observation) was < 5000 µg/mL. For the same molecule, the solubility ([2]; methanol, 50 °C, organic solvent or mixture, approximate, visual observation) was < 10000 µg/mL, the solubility ([2]; water, 25 °C) was < 5000 µg/mL and the solubility ([2]; water, 50 °C) was < 10000 µg/mL. For the same molecule, the XRPD ([3]; Acetone, a.w. 0, 25° C.) was “Form I”, the XRPD ([3]; Acetone/Water (91:9, v:v), a.w. 1, 25° C.) was “Form I” and the XRPD ([3]; Acetone/Water (94:6, v:v), a.w. 0.5, 25° C.) was “Form I”. The XRPD ([3]; Acetone/Water (97:3, v:v), a.w. 0.3, 25° C.) was “Form I”, the XRPD ([3]; Acetone/Water (99:1, v:v), a.w. 0.1, 25° C.) was “Form I” and the XRPD ([3]; DMSO/Water (64:36, v:v), a.w. 0.5, 25° C.) was “Form I”. For the same molecule, the XRPD ([3]; Water, a.w. 1, 25° C.) was “Form I”, the “change of morphic form in solvents with high water content (water activity study)” value [3] was “no significant changes to the morphic form” and the “change of morphic form in solvents with high water content (water activity study)” value ([3]; listed as Form I) was “only Form I was obtained”. The “Notes (form obtained)” value ([4]; slow evaporation from DCM) was “Form I”, the “XRPD (form change)” value ([4]; slow evaporation from DCM at ambient condition) was “−” and the “Notes (form obtained)” value ([4]; slow evaporation from MeOH/DCM(v:v = 1:1)) was “Form II”. For the same molecule, the “XRPD (form change)” value ([4]; slow evaporation from MeOH/DCM(v:v = 1:1) at ambient condition) was “+ (Form changed detected.)”, the “Notes (form obtained)” value ([4]; slow evaporation from THF) was “Form III” and the “XRPD (form change)” value ([4]; slow evaporation from THF at ambient condition) was “+ (Form changed detected.)”. The “Notes (form obtained)” value ([4]; slow evaporation from THF:Water (v:v = 95:5)) was “Form III” and the “XRPD (form change)” value ([4]; slow evaporation from THF:Water (v:v = 95:5) at ambient condition) was “+ (Form changed detected.)”.
